How the values were obtained:
[1] = test system: Monocotyledonous and dicotyledonous test plants; assay: Post-emergence herbicidal action, greenhouse pot test, sprayed at the 2- to 3-leaf stage, 9-level rating after 2 to 3 weeks; type: in vivo; parameters: key: 9-level scale: 1 = complete damage, 9 = no effect; settings: 250 g/ha, rated after 2 to 3 weeks, 9-level scale
Procedure: Post-Emergence Herbicidal Action
Monocotyledonous and dicotyledonous test plants are grown in standard soil in pots. At the 2- to 3-leaf stage of the test plants, the test substances are sprayed at optimum dosage (500 l of water/ha) as an aqueous suspension (prepared from a wettable powder (example F3, b) according to WO 97/34485) or emulsion (prepared from an emulsion concentrate (example F1, c) according to WO 97/34485). The test plants are then grown further under optimum conditions in a greenhouse.
After a test period of 2 to 3 weeks, the test is evaluated using a 9-level scale of rating (1=complete damage, 9=no effect). Ratings of 1 to 4 (in particular 1 to 3) mean good to very good herbicidal action.

[2] = test system: Monocotyledonous and dicotyledonous test plants; assay: Herbicidal action before emergence of the plants (pre-emergence action), greenhouse pot test, 9-level rating after 4 weeks; type: in vivo; parameters: key: 9-level scale: 1 = complete damage, 9 = no effect; settings: 250 g/ha, rated after 4 weeks, 9-level scale
Procedure: Herbicidal Action Before Emergence of the Plants (Pre-Emergence Action)
Monocotyledonous and dicotyledonous test plants are sown in standard soil in pots. Immediately after sowing, the test substances are sprayed on at an optimum dosage (500 l of water/ha) as an aqueous suspension (prepared from a wettable powder (example F3, b) according to WO 97/34485) or emulsion (prepared from an emulsion concentrate (example F1, c) according to WO 97/34485). The test plants are then grown under optimum conditions in a greenhouse.
After a test period of 4 weeks, the test is evaluated using a 9-level scale of ratings (1=complete damage, 9=no effect). Ratings of 1 to 4 (in particular 1 to 3) mean good to very good herbicidal action.

| Structure (SMILES) | Post-emergence action rating, Abutilon [1] | Post-emergence action rating, Amaranth [1] | Post-emergence action rating, Chenop. [1] | Post-emergence action rating, Digitaria [1] | Post-emergence action rating, Echino. [1] | Post-emergence action rating, Ipopur. [1] | Post-emergence action rating, Panicum [1] | Post-emergence action rating, Xanth. [1] | Pre-emergence action rating, Abutilon [2] | Pre-emergence action rating, Amaranthus [2] | Pre-emergence action rating, Digitaria [2] | Pre-emergence action rating, Echino. [2] | Pre-emergence action rating, Panicum [2] | Pre-emergence action rating, Chenop. ([2]; Chenop.) |
| --- | --- | --- | --- | --- | --- | --- | --- | --- | --- | --- | --- | --- | --- | --- |
| COc1ccccc1OCc1nc(C(F)(F)F)ccc1C(=O)C1=C(O)C2CCC(C2)C1=O (centres unmarked) [A33-B52] | 2 | 2 | 1 | 2 | 2 | 2 | 2 | 3 |  |  |  |  |  |  |
| CSCCOCc1nc(C(F)(F)F)ccc1C(=O)C1=C(O)C2CCC(C2)C1=O (centres unmarked) [A817-B52] | 2 | 2 | 1 | 2 | 2 | 2 | 1 | 2 |  |  |  |  |  |  |
| C[S+]([O-])CCOCc1nc(C(F)(F)F)ccc1C(=O)C1=C(O)C2CCC(C2)C1=O (centres unmarked) [A818-B52] | 2 | 2 | 1 | 2 | 3 | 2 | 2 | 2 |  |  |  |  |  |  |
| CSc1nnc(SCc2nc(C(F)(F)F)ccc2C(=O)C2=C(O)CCCC2=O)s1 [A829-B1] | 7 | 2 | 2 | 9 | 7 | 6 | 7 | 4 |  |  |  |  |  |  |
| CSc1nnc(SCc2nc(C(F)(F)F)ccc2C(=O)C2=C(O)C3CCC(C3)C2=O)s1 (centres unmarked) [A829-B52] | 3 | 2 | 2 | 6 | 4 | 4 | 2 | 6 |  |  |  |  |  |  |
| Cn1ncc(C(=O)c2ccc(C(F)(F)F)nc2COCC(F)(F)F)c1O [A834-C5] |  |  |  |  |  |  |  |  | 1 | 2 | 3 | 1 | 1 |  |
| COCC(Br)COCc1nc(C(F)(F)F)ccc1C(=O)C1=C(O)C2CCC(C2)C1=O (centres unmarked) [A853-B52] |  |  |  |  |  |  |  |  | 1 | 1 | 1 | 2 | 1 | 2 |
| O=C(C1=C(O)C2CCC(C2)C1=O)c1ccc(C(F)(F)F)nc1COCc1cccs1 (centres unmarked) [A854-B52] | 2 | 1 | 1 | 2 | 2 | 2 | 1 | 2 |  |  |  |  |  |  |
| O=C(C1=C(O)C2CCC(C2)C1=O)c1ccc(C(F)(F)F)nc1COCCOCc1ccccc1 (centres unmarked) [A855-B52] | 2 | 2 | 1 | 2 | 2 | 2 | 2 | 2 |  |  |  |  |  |  |
| O=C(C1=C(O)C2CCC(C2)C1=O)c1ccc(C(F)(F)F)nc1COCCO (centres unmarked) [A856-B52] | 2 | 2 | 1 | 2 | 2 | 1 | 2 | 2 |  |  |  |  |  |  |
| CC(C)(C)C(=O)OC1=C(C(=O)c2ccc(C(F)(F)F)nc2COCCO)C(=O)C2CCC1C2 (centres unmarked) [A856-B112] | 2 | 3 | 1 | 3 | 5 | 3 | 3 | 3 |  |  |  |  |  |  |
| O=C(C1=C(O)C2CCC(C2)C1=O)c1ccc(C(F)(F)F)nc1COCCOCOCc1ccccc1 (centres unmarked) [A857-B52] | 2 | 2 | 1 | 2 | 2 | 2 | 2 | 2 |  |  |  |  |  |  |
| COCCOCCOCCOCc1nc(C(F)(F)F)ccc1C(=O)C1=C(O)C2CCC(C2)C1=O (centres unmarked) [A858-B52] | 2 | 1 | 2 | 2 | 2 | 2 | 2 | 2 |  |  |  |  |  |  |
| CCOC(C)OCCOCc1nc(C(F)(F)F)ccc1C(=O)C1=C(O)C2CCC(C2)C1=O (centres unmarked) [A859-B52] | 2 | 2 | 1 | 2 | 2 | 2 | 1 | 2 |  |  |  |  |  |  |
| CCCCCCCC(=O)OCCOCc1nc(C(F)(F)F)ccc1C(=O)C1=C(O)C2CCC(C2)C1=O (centres unmarked) [A860-B52] | 2 | 2 | 1 | 1 | 2 | 2 | 2 | 2 |  |  |  |  |  |  |
| CC(=O)OCCOCc1nc(C(F)(F)F)ccc1C(=O)C1=C(O)C2CCC(C2)C1=O (centres unmarked) [A861-B52] | 3 | 2 | 1 | 3 | 5 | 2 | 2 | 2 |  |  |  |  |  |  |
| CS(=O)(=O)OCCOCc1nc(C(F)(F)F)ccc1C(=O)C1=C(O)C2CCC(C2)C1=O (centres unmarked) [A862-B52] | 3 | 2 | 1 | 2 | 3 | 5 | 2 | 2 |  |  |  |  |  |  |
| O=C(C1=C(O)C2CCC(C2)C1=O)c1ccc(C(F)(F)F)nc1COCCCOCc1ccccc1 (centres unmarked) [A863-B52] | 2 | 2 | 1 | 2 | 3 | 3 | 2 | 2 |  |  |  |  |  |  |
| CN(Cc1nc(C(F)(F)F)ccc1C(=O)C1=C(O)C2CCC(C2)C1=O)S(C)(=O)=O (centres unmarked) [A864-B52] | 2 | 2 | 1 | 2 | 2 | 2 | 2 | 2 |  |  |  |  |  |  |
| CN(Cc1nc(C(F)(F)F)ccc1C(=O)c1cnn(C)c1O)S(C)(=O)=O [A864-C5] | 2 | 1 | 1 | 2 | 2 | 2 | 1 | 2 |  |  |  |  |  |  |
